Source: patent US20210395680A1, “COMPOSITION AND KIT FOR DIFFERENTIATION OF STEM CELLS INTO NEURAL PROGENITOR CELLS, AND METHOD USING SAME” (CHA UNIVERSITY INDUSTRY-ACADEMIC COOPERATION FOUNDATION, priority 2018, published 2021)

How the values were obtained:
[1] = system: H9 human embryonic stem cells (hESCs); assay: Differentiation of H9 hESCs into neural progenitor cells via embryoid bodies; SOX1/P75 flow cytometry; type: cell-based
[2] = system: H9 human embryonic stem cells (hESCs); assay: as above; type: cell-based; remark: listed apart in the source
Description: Colonies obtained by culturing H9 human embryonic stem cells (hESCs) (WiCell Research Institute, Inc. Madison, Wis., U.S.A.) in a culture medium were dissociated into single cells using accutase (Life Technologies).
The cells dissociated into single cells were seeded in a culture plate coated with a protein such as vitronectin (VTN) (vitronectin XF, STEMCELL Technologies), laminine (rhLaminin-521, Thermo Fisher Scientific Inc., Waltham, Mass., USA), fibronectin (Thermo Fisher Scientific Inc.), or Matrigel™ (StemCell Technologies, Inc.). An embryonic stem cell (ESC) culture medium was added to the seeded cells to perform undifferentiation culture. As the ESC culture medium, Essential 8 (E8) medium (StemCell Technologies Inc.), TeSR2 medium (StemCell Technologies Inc), StemMACS (Miltenyi Biotec, Bergisch Gladbach, Germany), etc. was used.
(§1) The obtained colonies were finely chopped and suspension-cultured under conditions of 37° C. and 5% CO2 in a defined medium 1 containing 5 […] of a PKC inhibitor and 0.5 μM of a BMP inhibitor for about 4 days to prepare embryoid bodies (EBs). The defined medium 1 included DMEM/F12 (Life Technologies), 10 μg/ml of insulin (Sigma-Aldrich), 9 μg/ml of transferrin (Sigma-Aldrich), and 14 ng/ml of sodium selenite (Sigma-Aldrich). 3-(1-(3-Imidazol-1-yl propyl)-1H-indol-3-yl)-4-anilino-1H-pyrrole-2,5-dione) (PKC-beta inhibitor) (Millipore) was used as the PKC inhibitor. DMH1 (dorsomorphin homolog 1) (Tocris Bioscience, USA) which is a compound inhibiting BMP 1 type receptor was used as the BMP inhibitor. As a negative control, dimethyl sulfoxide (DMSO) (Sigma-Aldrich) was used instead of the drug.
(§2) EBs, which are round cell masses produced by suspension culture (defined medium 1) for about 4 days, were finely chopped, and then adhered to the bottom of the culture plate, followed by adherent culture for about 5 days (DMEM-F12, 1×N2 supplement, 25 μg/ml of insulin, 20 ng/ml of bFGF, and a matrigel-coated culture plate were used). Microscopic images of EBs obtained by suspension culture for about 4 days, and cells forming rossettes obtained by adherent culture for about 5 days are shown in FIG. 1B (left: embryoid bodies, right: cells forming rosettes).
2% (v/v) paraformaldehyde (Sigma-Aldrich) was added to cells cultured for a total of 9 days (suspension culture for 4 days+adherent culture for 5 days), and allowed to react at room temperature for about 10 minutes to fix the cells. 2% (v/v) normal serum/1×PBS (Vector Laboratories, Inc., Burlingame, Calif.) containing 0.1% (v/v) TRITON™ X-100 (Sigma-Aldrich) was added to the cells, and allowed to react at room temperature for 30 minutes to block the fixation. To analyze a proportion of cells expressing SOX1 which is a neural progenitor cell (NPC) marker or P75 protein which is a neural crest stem cell (NCSC) marker, immunostaining was performed using phycoerythrin (PE)-labeled anti-P75 monoclonal antibody (1:50 dilution) (Miltenyi Biotec), and phycoerythrin (PE)-labeled anti-Sox1 monoclonal antibody (1:100 dilution) (BD Biosciences). The immunostained cells were subjected to flow cytometry using a BD FACSCalibur flow cytometer (BD Biosciences, Sparks, Md., USA).
H9-hESCs were cultured by the method of differentiating via embryoid bodies as in Example 1.1(1). However, a defined medium 2 described below was used instead of the defined medium 1 used in Example 1.1(1).
The defined medium 2 was prepared by mixing knockout DMEM (Invitrogen), 20% (v/v) knockout serum replacement (KSR, Invitrogen), 2 mM L-glutamine (invitrogen), 1% (w/v) penicillin/streptomycin (Invitrogen), and 0.1 mM β-mercaptoethanol (Invitrogen).
H9-hESCs were cultured by the method of differentiating via embryoid bodies as in Example 1(1). However, a defined medium 3 was used instead of the defined medium 1 used in Example 1(1). The defined medium 3 was prepared by mixing DMEM/F12 (Invitrogen) and N2 supplement (Invitrogen). […]

CHA15-hESC = assay: Differentiation of CHA15-hESC into neural progenitor cells; SOX1/P75 flow cytometry; type: cell-based, human; settings: defined medium 1 including PKC inhibitor and BMP inhibitor; total of 9 days
Description: as §1
as §2, with “rosettes). […]” for “rosettes).”

CHA6-hESC = assay: Differentiation of CHA6-hESC into neural progenitor cells; SOX1/P75 flow cytometry; type: cell-based, human; settings: defined medium 1 including PKC inhibitor and BMP inhibitor; total of 9 days
Description: as §1
as §2, with “rosettes). […]” for “rosettes).”

[3] = system: induced pluripotent stem cell line (iPS cell #3); assay: Differentiation of induced pluripotent stem cell line (iPS cell #3) into neural progenitor cells; SOX1/P75 flow cytometry; type: cell-based, human; settings: defined medium 1 including PKC inhibitor and BMP inhibitor; total of 9 days
Description: as §1
as §2, with “rosettes). […]” for “rosettes).”

[4] = defined medium 2 including PKC inhibitor and BMP inhibitor
[5] = defined medium 3 including PKC inhibitor and BMP inhibitor

| SMILES | differentiation into P75-expressing neural crest stem cells ([1]; defined medium 1, only 5 μM PKC inhibitor without DMH1) [%] | cells expressing SOX1 (NPC marker) ([2]; defined medium 1, 5 μg/ml PKC inhibitor + 0.5 μM DMH1, suspension culture 4 days + adherent culture 5 days) | number of cells expressing P75 (neural crest stem cell marker) ([2]; defined medium 1, 5 μg/ml PKC inhibitor + 0.5 μM DMH1, total of 9 days culture) | differentiation into NPC ([2]; defined medium 1 including PKC inhibitor and DMH1) | differentiation into NPCs [2, 4] | number of cells expressing P75 (neural crest stem cell marker) [2, 4] | cells expressing SOX1 (NPC marker) ([2]; defined medium 2 including PKC inhibitor and BMP inhibitor, 4 days suspension + 5 days adherent) | differentiation into NPCs [2, 5] | number of cells expressing P75 (neural crest stem cell marker) [2, 5] | cells expressing SOX1 (NPC marker) ([2]; defined medium 3 including PKC inhibitor and BMP inhibitor, 4 days suspension + 5 days adherent) | differentiation into NPCs (CHA15-hESC) | differentiation into NPCs (CHA6-hESC) | differentiation into NPCs [3] | differentiation into SOX1-expressing NPCs ([1]; defined medium 1, 5 μM PKC inhibitor + 0.25 μM to 5 μM DMH1) [%] | differentiation into P75-expressing neural crest stem cells ([1]; defined medium 2, 5 μM PKC inhibitor + 0 μM to 0.5 μM DMH1) [%] | differentiation into SOX1-expressing NPCs ([1]; defined medium 2, 5 μM PKC inhibitor + 5 μM DMH1) [%] |
| --- | --- | --- | --- | --- | --- | --- | --- | --- | --- | --- | --- | --- | --- | --- | --- | --- |
| O=C1NC(=O)C(c2cn(CCCn3ccnc3)c3ccccc23)=C1Nc1ccccc1 [PKC inhibitor] | ≥ 87 | – | – | – | – | – | – | – | – | – | – | – | – | – | – | – |
| CC(C)Oc1ccc(-c2cnc3c(-c4ccnc5ccccc45)cnn3c2)cc1 [DMH1, 4-[6-[4-(1-methylethoxy)phenyl]pyrazolo[1,5-a]pyrimidin-3-yl]-quinoline] | – | most of the cultured cells expressed SOX1 | small | differentiation into NPC is induced | differentiation into NPCs is induced | relatively very small | most of the cultured cells expressed SOX1 | differentiation into NPCs is induced | relatively very small | most of the cultured cells expressed SOX1 | differentiation into NPCs is induced | differentiation into NPCs is induced | differentiation into NPCs is induced | ≥ 96 | ≥ 84 | ≥ 96 |
